This is an account of results in patent publication US20100278733A1, “COMPOSITION FOR DIAGNOSIS OF AMYLOID-RELATED DISEASE” (priority 2007, published 2010).

Series [1] can be described thus: In-vivo radioactivity distribution experiment using normal mice (Example 2). The note with it: normal mice, intravenous, Example 2 numbering. The method, then:
Radioactive iodine labeling compounds were diluted with physiological saline containing 10% EtOH. To each of four or five 5-week-old male ddY mice (20 to 25 g) per group, […] of a labeled compound, [^125I]Compound 7, 10, 13, or 14 (0.2 to 0.4 mCi), was administered from the caudal vein. Animals were decapitated at 2, 10, 30, or 60 min, blood was collected, the major organs were isolated, and then weights and radioactivities thereof were measured.

In series [2] the target is T1, Aβ(1-42) aggregate (Homo sapiens, UniProt P05067).
T1 construct: Amyloid β protein (Human, 1-42) [TFA form] was purchased from Peptide Institute, Inc; purchased Peptide Institute, Inc
The series is described as follows: Binding inhibition experiment using Aβ(1-42) aggregate, Ki values (Example 2). The note with it: compound numbers of Example 2; for Ki: radioactive ligand [^125I]CL-NMe2, mean ± standard error of 3 experiments (compound 4: 6 experiments), read-out: Ki values calculated by inhibition experiment. How it is done:
As a radioactive iodine-125 (^125I), Iodine-125 (3.7 GBq/mL) manufactured by MP Biomedicals, Inc. was used. Reverse phase HPLC was performed at a flow rate of 1.0 mL/min using a Cosmosil 5C18-AR-II column (4.6×150 mm) manufactured by Nacalai Tesque Inc. and ultrapure water:acetonitrile=3:7 as an elution solvent. ^1HNMR was measured using Varian Gemini 300 and tetramethylsilane as an internal standard substance. Mass spectrometry was performed using JEOL IMS-DX300. Preparative TLC was performed using 12 PLC plates 20×20-cm-Silica gel 60 F254, 2 mm manufactured by MERCK. Amyloid β protein (Human, 1-42) was purchased from Peptide Institute, Inc., and special grade reagents were used as other reagents.
Aβ(1-42) was dissolved in 10 mM phosphate buffer containing 1 mM EDTA (pH 7.4) at a concentration of 0.25 mg/mL, and the mixture was incubated at 37° C. for 42 h to prepare an Aβ(1-42) aggregate.
[…] of 10% EtOH solution, […] of a solution of [^125I]4-diethylamino-4′-iodochalcone ([^125I]CL-NMe2) in 10% ethanol, and […] of a sample solution at various concentrations (0 to 20 mM) were mixed, […] of an Aβ(1-42) aggregate solution was finally added, and the mixture was allowed to stand at room temperature for 3 h. Aβ(1-42) aggregate-bound compounds and nonbound compounds were separated with a Brandel M-24R cell harvester using a Whatman GF/B filter. Radioactivities remaining on the filter after filtration were measured with a γ-counter, and inhibition curves were created using Graph Pad Prism 4.0 to calculate inhibition constants (Ki values).

T1 sequence (P05067 672-713 limits assumed): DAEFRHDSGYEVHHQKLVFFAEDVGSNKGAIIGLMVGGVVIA

Turning to `CN(C)c1ccc(C(=O)/C=C/c2ccc(I)cc2)cc1` [Compound 10 in Example 2, 4-iodo-4′-dimethylaminochalcone], in series [1] (2 min), the “In-vivo radioactivity distribution: blood” value is listed as 1.87 (0.23) percent of the dose/g, the “In-vivo radioactivity distribution: brain” value is reported as 2.77 (0.37) percent of the dose/g, the “In-vivo radioactivity distribution: heart” value is listed as 5.23 (0.61) percent of the dose/g and the “In-vivo radioactivity distribution: intestine” value is recorded as 2.69 (0.43) percent of the dose/g. Further, in series [1] (2 min), the “In-vivo radioactivity distribution: kidney” value is recorded as 6.30 (0.85) percent of the dose/g, the “In-vivo radioactivity distribution: liver” value is listed as 13.99 (1.57) percent of the dose/g, the “In-vivo radioactivity distribution: lung” value was 6.02 (0.60) percent of the dose/g and the “In-vivo radioactivity distribution: pancreas” value is 3.85 (1.97) percent of the dose/g. In series [1] (2 min), the “In-vivo radioactivity distribution: spleen” value is 2.35 (0.35) percent of the dose/g and the “In-vivo radioactivity distribution: stomach” value is 0.76 (0.13) percent of the dose. Further, in series [1] (10 min), the “In-vivo radioactivity distribution: blood” value is listed as 1.89 (0.61) percent of the dose/g, the “In-vivo radioactivity distribution: brain” value is 2.04 (0.26) percent of the dose/g, the “In-vivo radioactivity distribution: heart” value was 2.05 (0.37) percent of the dose/g and the “In-vivo radioactivity distribution: intestine” value was 9.27 (1.36) percent of the dose/g. In series [1] (10 min), the “In-vivo radioactivity distribution: kidney” value is listed as 4.51 (1.29) percent of the dose/g, the “In-vivo radioactivity distribution: liver” value is on record as 10.29 (2.06) percent of the dose/g, the “In-vivo radioactivity distribution: lung” value is listed as 3.92 (0.76) percent of the dose/g and the “In-vivo radioactivity distribution: pancreas” value was 2.12 (0.31) percent of the dose/g. In series [1] (10 min), the “In-vivo radioactivity distribution: spleen” value is listed as 1.52 (0.19) percent of the dose/g and the “In-vivo radioactivity distribution: stomach” value is on record as 0.89 (0.28) percent of the dose. In series [1] (30 min), the “In-vivo radioactivity distribution: blood” value is 1.51 (0.40) percent of the dose/g, the “In-vivo radioactivity distribution: brain” value was 0.63 (0.06) percent of the dose/g, the “In-vivo radioactivity distribution: heart” value was 1.10 (0.16) percent of the dose/g and the “In-vivo radioactivity distribution: intestine” value is given as 12.50 (2.49) percent of the dose/g. Also, in series [1] (30 min), the “In-vivo radioactivity distribution: kidney” value is on record as 4.10 (1.15) percent of the dose/g, the “In-vivo radioactivity distribution: liver” value is 6.69 (1.21) percent of the dose/g, the “In-vivo radioactivity distribution: lung” value was 1.95 (0.25) percent of the dose/g and the “In-vivo radioactivity distribution: pancreas” value was 0.85 (0.10) percent of the dose/g. Moreover, in series [1] (30 min), the “In-vivo radioactivity distribution: spleen” value is reported as 0.82 (0.15) percent of the dose/g and the “In-vivo radioactivity distribution: stomach” value is 0.73 (0.23) percent of the dose. For the same compound, in series [1] (60 min), the “In-vivo radioactivity distribution: blood” value is reported as 1.38 (0.54) percent of the dose/g, the “In-vivo radioactivity distribution: brain” value is on record as 0.42 (0.11) percent of the dose/g, the “In-vivo radioactivity distribution: heart” value is reported as 0.84 (0.26) percent of the dose/g and the “In-vivo radioactivity distribution: intestine” value is 20.09 (5.48) percent of the dose/g. Moreover, in series [1] (60 min), the “In-vivo radioactivity distribution: kidney” value is 4.59 (1.57) percent of the dose/g, the “In-vivo radioactivity distribution: liver” value is 7.06 (2.45) percent of the dose/g, the “In-vivo radioactivity distribution: lung” value was 1.71 (0.29) percent of the dose/g and the “In-vivo radioactivity distribution: pancreas” value is 0.84 (0.22) percent of the dose/g. Moreover, in series [1] (60 min), the “In-vivo radioactivity distribution: spleen” value is reported as 0.89 (0.12) percent of the dose/g and the “In-vivo radioactivity distribution: stomach” value is listed as 2.17 (1.24) percent of the dose. Also, in series [2], the Ki (commonly a dissociation constant, usually derived from enzyme kinetics or from competition with a known ligand) is 0.0133 ± 0.0019 µM.

As to `CNc1ccc(C(=O)C=Cc2ccc(Br)s2)cc1` [Compound 45 in Example 2, 3-(5-bromo-2-thienyl)-1-(4-methylaminophenyl)-prop-2-en-1-one], in series [2], the Ki was 0.198 ± 0.0486 µM.

With `O=C(C=Cc1cccs1)c1ccc(I)cc1` [Compound 24 in Example 2, 1-(4-iodophenyl)-3-(2-thienyl)-prop-2-en-1-one], in series [2], the Ki was 0.102 ± 0.0159 µM.

Turning to `O=C(C=Cc1nccs1)c1ccc(I)cc1` [Compound 27 in Example 2, 1-(4-iodophenyl)-3-(thiazol-2-yl)-prop-2-en-1-one], the Ki in series [2] is > 10 µM.

For the compound `CN(C)c1ccc(C=CC(=O)c2ccc(Br)o2)s1` [Compound 35 in Example 2, 1-(5-bromo-2-furyl)-3-(5-dimethylamino-2-thienyl)-prop-2-en-1-one], the inhibitory constant (Ki) in series [2] is 2.65 ± 0.221 µM.

For `CN(C)c1ccc(C=CC(=O)c2ccc(I)cc2)s1` [Compound 33 in Example 2, 3-(5-dimethylamino-2-thienyl)-1-(4-iodophenyl)-prop-2-en-1-one], in series [2], the Ki is 0.113 ± 0.0101 µM.

Take `Nc1ccc(C=CC(=O)c2ccc(I)cc2)cc1` [CL-NH2, reference compound]: the Ki in series [2] was 0.105 ± 0.012 µM.

In the case of `CN(C)c1ccc(C=CC(=O)c2ccc(I)cc2)o1` [Compound 31 in Example 2, 1-(4-iodophenyl)-3-(5-dimethylamino-2-furanyl)-prop-2-en-1-one], the Ki in series [2] is 1.13 ± 0.344 µM.

On to `CN(C)c1ccc(C(=O)C=Cc2ccc(Br)s2)cc1` [Compound 46 in Example 2, 3-(5-bromo-2-thienyl)-1-(4-dimethylaminophenyl)-prop-2-en-1-one], for which the Ki in series [2] was 0.106 ± 0.0071 µM.

For the compound `CN(C)c1ccc(C=CC(=O)c2ccc(I)s2)o1` [Compound 36 in Example 2, 3-(5-dimethylamino-2-furyl)-1-(5-iodo-2-thienyl)-prop-2-en-1-one], the Ki in series [2] is 1.61 ± 0.0845 µM.

Take `Nc1ccc(/C=C/C(=O)c2ccc(I)cc2)c(N)c1` [Compound 39 in Example 2, 2,4-diamino-4′-iodochalcone]: the “binding affinity for the Aβ(1-42) aggregate” value in series [2] (in words, derivatives with two substituents on Ring A) was “no compound showed a high binding affinity”.
